Consider one molecule from patent US20250262189A1, “TREATMENT OF DISEASES ASSOCIATED WITH REDUCTIVE STRESS” (RDiscovery, LLC, priority 2022, published 2025).

“Also recorded” adds a separate entry of the source.

For this test, the system named is GDF-15 expression in HUVEC cells. In words: GDF-15 mRNA expression by RT-qPCR in HUVEC cells under AZT-induced reductive stress. Format: cell-based, Human. The note with it: AZT 5 μM with ZLN-005 1 μM, harvested Day 6, two sets of runs (FIG. 1, FIG. 2), AZT vs. AZT/ZLN P=0.016 (FIG. 2). Here is the method:
A study was performed to evaluate the ability of ZLN-005 to mitigate the effects of reductive stress induced by azidothymidine (AZT), which is believed to inhibit mitochondrial respiratory chain complex I and II.
Human human umbilical vein endothelial (HUVEC) cells were cultured in HuMedia-EG2 medium (Kurabo) at 5×10^4 cells per well in a six-well plate. Medium was supplemented with AZT (Sigma) at 5 μM, with or without ZLN-005 at 1 μM. Cells cultured without AZT and without ZLN-005 were used as non-treated control (NTC)). Medium was changed on days 2 and 4. Cells were harvested on Day 6 for analysis of GDF-15 mRNA expression by quantitative reverse transcription PCR (RT-qPCR).
(Real-time PCR tracks product formation cycle by cycle.)

Regarding `CC(C)(C)c1ccc(-c2nc3ccccc3[nH]2)cc1` [ZLN-005, 2-(4-tert-butylphenyl)-1H-benzimidazole], the “GDF-15 expression compared to cells treated with AZT but not ZLN-005” value is on record as “reduced GDF-15 expression; also recorded: decreases expression of reductive stress biomarker GDF-15”.
